Measurements from publication PMC5685716, “Oral 4-(N)-stearoyl gemcitabine nanoparticles inhibit tumor growth in mouse models” (Oncotarget, 2017).
Values after ≈ are worked out from the molar mass of the structure shown. Values joined by “and” are separate entries in the source; they are usually repeats but may differ in a detail not shown here. Equal values may be shown once. Where a name gives a salt, the structure may show the parent alone. Read-outs that look alike come from different tables or passages of the source.

Tests used:
HT-29 tumor cells = tested on: HT-29 tumor cells; design: method as in PMID 17352232; settings: peritumoral injection, GemC18 in a Tween 80 solution; cited from earlier work
TC-1 tumors [1] = tested on: TC-1 tumors; design: method as in PMID 21371545, PMID 22471294; settings: GemC18 dissolved in a Tween 20 solution; cited from earlier work
LLC tumors = assay: Antitumor activity in mice with LLC lung tumors; format: in vivo, C57BL/6J mice; settings: p.o. once in every two days, GemC18 250 μg/mouse, GemHCl 141.5 μg/mouse (molar equivalent)
Experimental: LLC tumors were established in female C57BL/6J mice (6-8 week) from the Beijing Vital River Laboratory Animal Technology Co., Ltd. (Beijing, China). Mice were s.c. injected with LLC cells (5 × 10^5) in their back on day 0. On day 11, mice were randomized into groups (n = 8) and were treated by oral gavage with GemC18-SLNs, GemC18-free SLNs, GemC18 alone in a Tween 20 solution, GemHCl (molar equivalent of GemC18), all in a mannitol solution (5%, w/v). Control mice were orally gavaged with a mannitol solution (5%). Mice were treated once in every two days for 3 weeks. The dose of GemC18 was 250 μg/mouse, 141.5 μg/mouse for GemHCl (i.e. molar equivalent to 250 μg of GemC18). GemC18 was dissolved into 1% (v/v) Tween 20 in a 5% (w/v) mannitol solution to a proper concentration. Mouse health was monitored daily, and weight recorded. Tumor size was measured every other day. […] Microscopic images taken at 200 x magnification were analyzed using an Image-Pro Plus software (Media Cybernetics, Inc., Shanghai, China) to determine the percent of cells that are Ki67 positive, the microvessel density (MVD) in tumor tissues, and the optical density of the anti-caspase 3 staining.

B16F10 tumors = tested on: B16F10 tumors; design: method as in PMID 21371545, PMID 22471294; settings: GemC18 dissolved in a Tween 20 solution; cited from earlier work
TC-1 tumor cells = tested on: TC-1 tumor cells; design: method as in PMID 23570983; settings: 3 × 10^3 cells, 48 h of incubation; cited from earlier work
[2] = design: method as in PMID 19860433, PMID 26806350; settings: cited from earlier work
LLC cells = tested on: LLC cells; design: method as in earlier work; settings: 3 × 10^3 cells, 48 h incubation; cited from earlier work
[3] = design: method as in PMID 19860433; settings: mouse model, molar equivalent dose, cited from earlier work
[4] = design: method as in PMID 19860433, PMID 17090088; settings: oral, animal (rodent) models; cited from earlier work
leukemia = settings: oral, rat leukemia model; cited from earlier work
[5] = design: method as in PMID 18473859, PMID 18474674; settings: in water; cited from earlier work
TC-1 tumors [6] = assay: Antitumor activity in mice with pre-established TC-1 tumors; format: in vivo, C57BL/6 mice; settings: p.o. once daily, GemC18 150 μg/mouse, gemcitabine HCl 85 μg/mouse (molar equivalent)
From the text: When TC-1 tumor cells were used, female C57BL/6 mice (18-20 g, 6-8 weeks, n = 5) were subcutaneously (s.c) injected with TC-1 cells (5 × 10^5 cells/mouse) in the right flank on day 0. Mouse hair was carefully trimmed at the injection site one day prior to the injection. Treatment with GemC18-SLNs, GemC18-in-vegetable oil (GemC18-in-oil), GemC18-free SLNs, all in a mannitol solution (5%, w/v), was started on day 11, and mice were orally gavaged daily until the endpoint (i.e. death, tumor size reaching 15 mm, tumor ulceration, body weight loss of more than 20%, or other signs of severe distress and discomfort). As controls, mice were orally gavaged with a mannitol solution (5%) or i.v. injected with the GemC18-SLNs, twice a week until the endpoint. The dose of GemC18 was 250 μg per mouse per dose for the oral route, 500 μg per mouse per dose for i.v. route. Tumor size was measured 2-3 times a week, and tumor volume was calculated as: volume (mm^3) = (length x width^2)/2. Mouse survival time was also recorded. In another study, TC-1 tumor-bearing female C57BL/6 mice were orally gavaged with GemC18-SLNs, GemC18-in-oil, vegetable oil alone (oil), or gemcitabine HCl (GemHCl, as a control), once daily. The dose of GemC18 was 150 μg per mouse per dose, and dose of GemHCl was 85 μg per mouse per dose (i.e. molar equivalent to the dose of GemC18).

[7] = design: method as in PMID 18519780; settings: human subjects, patients with advanced or metastatic cancer, estimated; cited from earlier work

Structure (SMILES) | LLC tumor growth (LLC tumors) | IC50 (TC-1 tumor cells) | solubility in water [2] | IC50 (LLC cells) | antitumor activity vs molar equivalent dose of gemcitabine [4] | further results
CCCCCCCCCCCCCCCCCC(=O)Nc1ccn([C@@H]2OC(CO)C(O)C2(F)F)c(=O)n1 (stereo partly shown) [GemC18, 4-(N)-stearoyl gemcitabine] | also inhibited LLC tumor growth, but they were significantly less effective than oral GemC18-SLNs | 18.5 ± 1.7 nM | 1.38 ± 1.60 µg/mL (≈ 2.61 µM) | 130 ± 31.1 nM |  | tumor growth (HT-29 tumor cells): did not significantly affect the tumor growth; antitumor activity (TC-1 tumors [1]): did not show any significant antitumor activity; antitumor activity (B16F10 tumors): did not show any significant antitumor activity
CCCC(CCC)C(=O)Nc1ccn([C@@H]2O[C@H](CO)[C@@H](O)C2(F)F)c(=O)n1 [LY2334737] |  |  | > 2000 µg/mL |  | stronger antitumor activity | systemic exposure (AUC) vs oral gemcitabine ([3]; listed as LY2334734): higher systemic exposure of gemcitabine than oral free gemcitabine; systemic exposure (AUC) vs oral gemcitabine [3]: significantly higher
CC(C)=CCC/C(C)=C/CC/C(C)=C/CC/C=C(\C)CC/C=C(\C)CCC(=O)Nc1ccn([C@@H]2O[C@H](CO)[C@@H](O)C2(F)F)c(=O)n1 [SQdFdC] |  |  |  |  | stronger antitumor activity | antitumor activity (leukemia): potent antitumor activity; size of self-assembled nanoparticles [5]: 100-300 nm
Nc1ccn([C@@H]2O[C@H](CO)[C@@H](O)C2(F)F)c(=O)n1 [gemcitabine HCl] | also inhibited LLC tumor growth, but they were significantly less effective than oral GemC18-SLNs |  |  | 23.4 ± 6.7 nM |  | TC-1 tumor growth (TC-1 tumors [6]): significantly less effective than the GemC18-SLNs
Nc1ccn([C@@H]2O[C@H](CO)[C@@H](O)C2(F)F)c(=O)n1 [gemcitabine, 2′,2′-difluorodeoxycytidine] |  | 10.6 ± 1.1 nM |  |  |  | oral bioavailability [7]: 10% and ~ 10%
